Drawing on PMC9030254, “Target Hopping from Protein Kinases to PXR: Identification of Small-Molecule Protein Kinase Inhibitors as Selective Modulators of Pregnane X Receptor from TüKIC Library” (Cells, 2022), this text covers Residual activity for two compounds.

What all share (assay): Kinase profiling
Common to all, as to type: biochemical

One test has as its target T1, EPHA2 (Homo sapiens, UniProt P29317).
T1 construct: purchased ProQinase (Freiburg, Germany)
The protocol: (§1) The analysis was performed by ProQinase (Freiburg, Germany).

In another test the target is T2, BMX (Homo sapiens, UniProt P51813).
T2 construct: purchased ProQinase (Freiburg, Germany)
T2 sequence (P51813 1-675): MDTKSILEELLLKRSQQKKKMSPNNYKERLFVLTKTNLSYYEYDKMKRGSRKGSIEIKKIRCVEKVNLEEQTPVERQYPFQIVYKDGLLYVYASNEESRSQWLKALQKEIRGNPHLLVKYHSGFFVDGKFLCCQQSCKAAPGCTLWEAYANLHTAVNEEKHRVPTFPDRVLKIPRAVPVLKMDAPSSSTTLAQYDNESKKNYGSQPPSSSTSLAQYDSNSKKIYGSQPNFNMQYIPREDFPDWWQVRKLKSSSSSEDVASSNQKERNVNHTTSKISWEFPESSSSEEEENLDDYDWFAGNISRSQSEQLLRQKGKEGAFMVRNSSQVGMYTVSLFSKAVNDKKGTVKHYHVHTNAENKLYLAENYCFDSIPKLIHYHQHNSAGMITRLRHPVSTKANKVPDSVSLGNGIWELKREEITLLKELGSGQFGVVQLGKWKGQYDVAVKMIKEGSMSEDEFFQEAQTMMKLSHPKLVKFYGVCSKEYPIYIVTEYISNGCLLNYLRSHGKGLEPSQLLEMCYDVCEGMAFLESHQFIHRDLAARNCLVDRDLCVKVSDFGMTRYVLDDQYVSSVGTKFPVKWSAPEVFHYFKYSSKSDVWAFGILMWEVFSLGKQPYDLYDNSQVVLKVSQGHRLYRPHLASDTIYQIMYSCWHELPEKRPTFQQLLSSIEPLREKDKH
As for the experimental part:
as §1

For another test, the target named is T3, RPS6KA1 (Homo sapiens, UniProt Q15418).
T3 construct: purchased ProQinase (Freiburg, Germany)
The protocol:
as §1

Another test addresses T4, FYN (Homo sapiens, UniProt P06241).
T4 construct: purchased ProQinase (Freiburg, Germany)
The protocol:
as §1

A further test addresses T5, PKCiota (Homo sapiens, UniProt P41743).
T5 construct: purchased ProQinase (Freiburg, Germany)
T5 sequence (P41743 1-596): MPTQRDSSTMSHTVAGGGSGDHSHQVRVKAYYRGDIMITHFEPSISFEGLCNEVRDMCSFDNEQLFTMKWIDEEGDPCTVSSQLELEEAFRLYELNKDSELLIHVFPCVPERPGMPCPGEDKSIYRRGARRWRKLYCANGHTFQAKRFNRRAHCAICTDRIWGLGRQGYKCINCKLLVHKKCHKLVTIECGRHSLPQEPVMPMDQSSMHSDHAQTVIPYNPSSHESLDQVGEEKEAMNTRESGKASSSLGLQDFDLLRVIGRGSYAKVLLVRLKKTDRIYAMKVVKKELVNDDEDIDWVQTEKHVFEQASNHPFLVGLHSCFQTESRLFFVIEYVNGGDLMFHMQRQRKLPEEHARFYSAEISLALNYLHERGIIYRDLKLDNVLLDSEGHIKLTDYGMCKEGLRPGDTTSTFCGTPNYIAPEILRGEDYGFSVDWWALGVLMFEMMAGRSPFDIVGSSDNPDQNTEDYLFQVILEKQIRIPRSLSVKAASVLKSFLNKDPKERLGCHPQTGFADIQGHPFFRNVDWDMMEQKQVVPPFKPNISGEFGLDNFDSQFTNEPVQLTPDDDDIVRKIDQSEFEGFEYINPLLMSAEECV
As for the experimental part: as §1

The target of the next test is T6, CDK3/CycE1 (Homo sapiens, UniProt Q00526).
T6 construct: purchased ProQinase (Freiburg, Germany)
As for the experimental part:
as §1

Another test deals with T7, EPHA8 (Homo sapiens, UniProt P29322).
T7 construct: purchased ProQinase (Freiburg, Germany)
T7 sequence (P29322 28-1005): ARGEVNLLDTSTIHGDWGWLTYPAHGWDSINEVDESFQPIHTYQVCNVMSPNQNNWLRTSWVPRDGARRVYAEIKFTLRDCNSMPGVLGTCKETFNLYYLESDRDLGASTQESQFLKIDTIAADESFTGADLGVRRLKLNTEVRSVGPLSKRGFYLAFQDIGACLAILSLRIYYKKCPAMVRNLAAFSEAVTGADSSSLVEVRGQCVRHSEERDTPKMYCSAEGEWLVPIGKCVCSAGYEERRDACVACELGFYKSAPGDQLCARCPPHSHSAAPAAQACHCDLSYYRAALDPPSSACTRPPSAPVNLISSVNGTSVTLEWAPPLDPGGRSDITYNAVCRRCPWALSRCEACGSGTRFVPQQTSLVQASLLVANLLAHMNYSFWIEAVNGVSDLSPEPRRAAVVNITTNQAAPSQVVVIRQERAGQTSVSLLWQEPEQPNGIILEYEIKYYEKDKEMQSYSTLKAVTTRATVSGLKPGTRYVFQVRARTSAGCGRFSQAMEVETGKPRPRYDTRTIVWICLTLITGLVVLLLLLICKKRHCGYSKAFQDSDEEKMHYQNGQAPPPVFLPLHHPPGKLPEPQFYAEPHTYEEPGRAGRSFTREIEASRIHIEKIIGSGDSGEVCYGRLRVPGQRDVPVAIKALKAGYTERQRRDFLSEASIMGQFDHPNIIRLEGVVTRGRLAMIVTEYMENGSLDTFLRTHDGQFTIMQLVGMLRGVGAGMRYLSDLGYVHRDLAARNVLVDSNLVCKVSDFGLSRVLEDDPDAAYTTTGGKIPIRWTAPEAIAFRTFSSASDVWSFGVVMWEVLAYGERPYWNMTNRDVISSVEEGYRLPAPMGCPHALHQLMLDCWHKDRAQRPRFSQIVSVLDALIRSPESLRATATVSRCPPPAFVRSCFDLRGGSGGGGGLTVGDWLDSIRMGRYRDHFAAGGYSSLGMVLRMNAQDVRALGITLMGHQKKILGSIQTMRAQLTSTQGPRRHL
As for the experimental part:
as §1

SMILES strings stand for the structures.

T1 sequence (P29317 24-976): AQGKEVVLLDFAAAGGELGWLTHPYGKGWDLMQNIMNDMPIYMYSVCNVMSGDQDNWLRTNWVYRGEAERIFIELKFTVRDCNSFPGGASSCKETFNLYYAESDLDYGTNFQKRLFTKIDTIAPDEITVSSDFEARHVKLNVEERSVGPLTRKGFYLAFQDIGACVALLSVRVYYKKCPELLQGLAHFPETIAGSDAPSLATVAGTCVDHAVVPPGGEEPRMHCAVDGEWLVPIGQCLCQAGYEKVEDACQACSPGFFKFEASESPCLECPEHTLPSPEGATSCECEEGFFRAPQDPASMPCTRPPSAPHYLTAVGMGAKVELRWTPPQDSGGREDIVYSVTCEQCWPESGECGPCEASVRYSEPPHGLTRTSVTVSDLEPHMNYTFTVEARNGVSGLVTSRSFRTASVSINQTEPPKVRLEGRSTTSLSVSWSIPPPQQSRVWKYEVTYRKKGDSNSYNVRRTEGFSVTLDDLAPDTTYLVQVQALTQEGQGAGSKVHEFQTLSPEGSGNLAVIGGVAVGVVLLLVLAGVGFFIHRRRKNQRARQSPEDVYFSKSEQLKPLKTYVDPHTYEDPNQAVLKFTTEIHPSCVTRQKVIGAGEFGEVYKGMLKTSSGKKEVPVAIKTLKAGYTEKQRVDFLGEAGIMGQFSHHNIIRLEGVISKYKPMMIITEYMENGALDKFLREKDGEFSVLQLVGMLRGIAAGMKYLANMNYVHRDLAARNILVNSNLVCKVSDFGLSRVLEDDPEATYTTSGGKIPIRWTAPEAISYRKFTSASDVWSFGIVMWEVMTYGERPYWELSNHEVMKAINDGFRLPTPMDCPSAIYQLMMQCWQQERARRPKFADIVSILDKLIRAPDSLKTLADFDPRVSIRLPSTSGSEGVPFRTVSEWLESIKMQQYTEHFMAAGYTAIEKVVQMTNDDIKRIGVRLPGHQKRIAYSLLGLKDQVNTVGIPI
T3 sequence (Q15418 whole entry): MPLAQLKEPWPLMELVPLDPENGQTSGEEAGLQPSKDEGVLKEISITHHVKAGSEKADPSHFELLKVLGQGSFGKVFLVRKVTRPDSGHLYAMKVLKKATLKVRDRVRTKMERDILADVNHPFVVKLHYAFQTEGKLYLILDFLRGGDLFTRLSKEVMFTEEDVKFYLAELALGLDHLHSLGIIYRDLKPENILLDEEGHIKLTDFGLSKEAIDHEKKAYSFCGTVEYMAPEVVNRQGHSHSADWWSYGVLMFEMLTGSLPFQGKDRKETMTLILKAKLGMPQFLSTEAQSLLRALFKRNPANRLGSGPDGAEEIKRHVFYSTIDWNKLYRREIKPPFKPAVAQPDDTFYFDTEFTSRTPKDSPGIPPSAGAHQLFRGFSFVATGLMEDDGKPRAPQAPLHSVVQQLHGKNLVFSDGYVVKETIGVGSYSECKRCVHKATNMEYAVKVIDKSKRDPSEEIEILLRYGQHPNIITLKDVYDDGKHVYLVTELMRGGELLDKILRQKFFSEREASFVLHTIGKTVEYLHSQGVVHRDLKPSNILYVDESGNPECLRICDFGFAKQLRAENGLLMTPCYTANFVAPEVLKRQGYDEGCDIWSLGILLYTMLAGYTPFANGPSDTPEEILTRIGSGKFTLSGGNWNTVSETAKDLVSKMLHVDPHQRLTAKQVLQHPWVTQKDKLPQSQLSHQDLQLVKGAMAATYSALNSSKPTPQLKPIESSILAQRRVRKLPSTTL
T4 sequence (P06241 whole entry): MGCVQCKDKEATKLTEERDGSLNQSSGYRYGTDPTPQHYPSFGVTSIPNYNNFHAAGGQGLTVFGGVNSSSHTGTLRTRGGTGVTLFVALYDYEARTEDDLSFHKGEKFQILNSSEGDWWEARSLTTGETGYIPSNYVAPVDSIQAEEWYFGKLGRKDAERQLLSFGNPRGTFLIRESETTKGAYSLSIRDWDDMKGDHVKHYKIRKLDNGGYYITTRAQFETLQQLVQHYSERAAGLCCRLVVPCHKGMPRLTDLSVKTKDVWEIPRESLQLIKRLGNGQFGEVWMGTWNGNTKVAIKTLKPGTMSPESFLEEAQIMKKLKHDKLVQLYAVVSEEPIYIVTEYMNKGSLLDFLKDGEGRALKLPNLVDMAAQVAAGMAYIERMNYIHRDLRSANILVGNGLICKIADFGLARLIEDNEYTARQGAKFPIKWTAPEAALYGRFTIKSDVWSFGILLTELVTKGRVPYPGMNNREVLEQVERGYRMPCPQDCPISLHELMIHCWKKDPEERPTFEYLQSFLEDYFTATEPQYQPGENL
T6 sequence (Q00526 whole entry): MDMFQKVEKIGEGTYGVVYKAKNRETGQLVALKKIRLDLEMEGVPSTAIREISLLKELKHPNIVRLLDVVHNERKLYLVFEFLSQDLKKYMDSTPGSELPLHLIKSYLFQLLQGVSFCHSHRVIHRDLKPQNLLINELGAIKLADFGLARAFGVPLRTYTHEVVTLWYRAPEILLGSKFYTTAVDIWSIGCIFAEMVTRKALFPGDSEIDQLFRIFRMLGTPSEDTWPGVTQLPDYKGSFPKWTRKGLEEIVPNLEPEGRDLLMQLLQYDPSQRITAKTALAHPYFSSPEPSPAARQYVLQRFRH
T6 sequence (P24864 whole entry partner): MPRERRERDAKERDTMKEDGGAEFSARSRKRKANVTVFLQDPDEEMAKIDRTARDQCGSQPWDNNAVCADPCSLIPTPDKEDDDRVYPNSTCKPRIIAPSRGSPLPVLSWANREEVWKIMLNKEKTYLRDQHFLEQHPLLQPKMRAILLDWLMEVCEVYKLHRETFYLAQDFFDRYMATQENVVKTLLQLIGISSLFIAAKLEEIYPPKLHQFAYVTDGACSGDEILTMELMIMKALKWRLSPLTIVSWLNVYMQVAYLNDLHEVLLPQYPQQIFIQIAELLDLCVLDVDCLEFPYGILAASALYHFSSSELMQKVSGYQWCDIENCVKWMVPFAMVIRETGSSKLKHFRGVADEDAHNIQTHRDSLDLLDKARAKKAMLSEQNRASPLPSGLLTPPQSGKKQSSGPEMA

For `O=C(Nc1ccc(F)c(Nc2ccc3c(c2)CCCCC3=O)c1)c1cccc(F)c1` [Compound 109], the Residual activity at EPHA2 (1.0E-05 M) was 107 % of control; on EPHA2 (1.0E-06 M), 105 % of control; on BMX (1.0E-05 M), 83 % of control; on BMX (1.0E-06 M), 100 % of control; on RPS6KA1 (1.0E-05 M), 95 % of control; on RPS6KA1 (1.0E-06 M), 96 % of control. The Residual activity is reported as 83 % of control at FYN (1.0E-05 M); 104 % of control at FYN (1.0E-06 M); 77 % of control on PKCiota (1.0E-05 M); 82 % of control on PKCiota (1.0E-06 M); 82 % of control on CDK3/CycE1 (1.0E-05 M); 91 % of control at CDK3/CycE1 (1.0E-06 M). Further, the Residual activity on EPHA8 (1.0E-05 M) is given as 91 % of control; at EPHA8 (1.0E-06 M) it was 110 % of control.

Turning to `O=C(Cc1ccccc1)Nc1ccc(F)c(Nc2ccc3c(c2)CCCCC3=O)c1` [Compound 100], the Residual activity is 94 % of control on EPHA2 (1.0E-05 M); 116 % of control on EPHA2 (1.0E-06 M); 71 % of control at BMX (1.0E-05 M); 111 % of control on BMX (1.0E-06 M); 96 % of control on RPS6KA1 (1.0E-05 M); 110 % of control on RPS6KA1 (1.0E-06 M). For the same compound, the Residual activity on FYN (1.0E-05 M) is 55 % of control; at FYN (1.0E-06 M), 90 % of control; at PKCiota (1.0E-05 M), 71 % of control; at PKCiota (1.0E-06 M) it was 94 % of control; on CDK3/CycE1 (1.0E-05 M), 80 % of control; at CDK3/CycE1 (1.0E-06 M), 90 % of control. The results for the Residual activity at EPHA8 (1.0E-05 M) and on EPHA8 (1.0E-06 M) were 91 % of control and 98 % of control, respectively.
